One may read the Ki as a measure of affinity in units of concentration, obtained from inhibition or displacement.

Assay [1] concerns the target Cy5-labelled Mcl1 (amino acids 171-321) C286S protein (UniProtKB Q07820) (Homo sapiens (Human), UniProt Q07820, C286S). Put plainly: Inhibition of Mcl-1 by the fluorescence quenching assay (Example A, Method B). The format is binding. Summed up: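 Eleven-point compound series incubated 2 h at room temperature with 1 nM Cy5-tagged protein and quencher-labelled PUMA peptide at 10, 20 or 400 nM in HEPES/NaCl/Tween 20, pH 7.4, 5% DMSO. IC50 for 50% fluorescence increase by 4-parameter fit, then Ki derived (complete cKi or estimated eKi).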

The test system of assay [2] is H929 multiple myeloma tumor line. In words: In vitro cytotoxicity, MTT assay (Example B, Method A). Format: cell-based. The conditions noted are these: H929 cells, 48 hours exposure, read-out: C50. The method, then:
The cytotoxicity studies were carried out on the H929 multiple myeloma tumor line.
The cells are distributed onto microplates and exposed to the test compounds for 48 hours. The cell viability is then quantified by a colorimetric assay, the Microculture Tetrazolium Assay (Carmichael et al, Cancer Res. 1987, 47, 939-942).
The results are expressed in C50 which means concentration corresponding to […] of effect/inhibition.
In general terms: Tetrazolium assays rely on reduction of a dye to a coloured formazan, in cell work by metabolically active cells.

The target of a further assay is Mcl-1 protein (UniProtKB Q07820) (Homo sapiens (Human), UniProt Q07820). Put plainly: Inhibition of Mcl-1 by the fluorescence polarisation assay (Example A, Method A). Format: binding. The note with it: fluorescence polarization assay. Summed up:
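Protein (5 nM) and fluorescein-tagged peptide tracer (1 nM) incubated with 11-point compound series for 2 h at room temperature in HEPES/NaCl/Tween 20 buffer, pH 7.4, 5% DMSO. Displacement read as decrease in polarisation; IC50 fitted by 4-parameter logistic, converted to Ki (cKi or eKi).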

SMILES strings stand for the structures. Where two headings read alike, the source gives them in different places.

Mcl-1 protein, sequence (Q07820 whole entry): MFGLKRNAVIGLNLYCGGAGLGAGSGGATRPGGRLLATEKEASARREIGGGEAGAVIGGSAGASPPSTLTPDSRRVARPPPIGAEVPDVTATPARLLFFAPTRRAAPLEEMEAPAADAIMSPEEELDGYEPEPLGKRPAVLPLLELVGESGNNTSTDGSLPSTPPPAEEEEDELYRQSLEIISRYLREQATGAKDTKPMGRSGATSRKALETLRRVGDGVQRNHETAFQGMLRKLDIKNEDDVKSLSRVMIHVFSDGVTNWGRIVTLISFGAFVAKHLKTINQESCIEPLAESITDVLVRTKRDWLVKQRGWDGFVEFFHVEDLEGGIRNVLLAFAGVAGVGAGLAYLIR
Cy5-labelled Mcl1 (amino acids 171-321) C286S protein, sequence (Q07820 171-321 C286S): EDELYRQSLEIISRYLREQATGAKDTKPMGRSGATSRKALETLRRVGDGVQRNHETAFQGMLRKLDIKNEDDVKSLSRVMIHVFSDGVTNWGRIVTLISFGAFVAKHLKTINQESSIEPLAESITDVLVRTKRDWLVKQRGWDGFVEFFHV

With `C[C@@H]1CCCc2nccc(OCC(F)CC3Cc4ccccc4[C@]34CC[C@@](Nc3cccc(Cl)c3)(C(=O)O)CC4)c21` (single isomer, unassigned) [Example 510], the Ki in assay [1] was determined as 0.00151 µM. The IC50 in assay [2] amounted to 0.252 µM.
Regarding `C[C@@H](COc1ccnc2c1CC(C)(C)CC2)C[C@H]1Cc2ccccc2[C@]12CC[C@@](Nc1cccc(Cl)c1)(C(=O)O)CC2` [Example 652, (1r,2′S,4S)-4-(3-chloroanilino)-2′-{(2R)-3-[(6,6-dimethyl-5,6,7,8-tetrahydroquinolin-4-yl)oxy]-2-methylpropyl}-2′,3′-dihydrospiro[cyclohexane-1,1′-indene]-4-carboxylic acid], at Mcl-1 protein, the Ki came to 0.0203 µM. Further, in assay [2] (Homo sapiens, NCI-H929, 48 h), the IC50 worked out at 4.71 µM.
Take `O=C(O)[C@]1(Nc2cccc(Cl)c2)CC[C@@]2(CC1)c1ccccc1C[C@H]2c1ccc(Oc2ccccc2)cc1` [Example 358, (1r,2′S,4S)-4-(3-chloroanilino)-2′-(4-phenoxyphenyl)-2′,3′-dihydrospiro[cyclohexane-1,1′-indene]-4-carboxylic acid]: the inhibition constant Ki at Mcl-1 protein was found to be 0.0622 µM. Moreover, in assay [2] (Homo sapiens, NCI-H929, 48 h), the IC50 was 7.43 µM.
The like results for `O=C(O)[C@]1(Nc2cccc(Cl)c2)CC[C@@]2(CC1)c1ccccc1CC2CCCOc1ccnc2c1CCCC2` (stereo partly drawn) [Example 451, (1r,4r)-4-(3-chloroanilino)-2′-{3-[(5,6,7,8-tetrahydroquinolin-4-yl)oxy]propyl}-2′,3′-dihydrospiro[cyclohexane-1,1′-indene]-4-carboxylic acid] were, in that order, 0.0497 µM and 3.49 µM.
Take `CC(C)C(COc1ccccc1)CC1Cc2ccccc2[C@]12CC[C@@](Nc1cccc(Cl)c1)(C(=O)O)CC2` (single isomer, unassigned) [Example 531, (1r,4r)-4-(3-chloroanilino)-2′-[3-methyl-2-(phenoxymethyl)butyl]-2′,3′-dihydrospiro[cyclohexane-1,1′-indene]-4-carboxylic acid]: on Mcl-1 protein, the Ki was determined as 5.97 µM. Further, the IC50 in assay [2] came to 15.9 µM.
On to `CC(C)COc1ccc2c(c1)[C@]1(CC[C@@](Nc3cccc(Cl)c3)(C(=O)O)CC1)C(c1cccc(Oc3ccccc3)c1)C2` (single isomer, unassigned) [Example 385, (1r,4r)-4-(3-chloroanilino)-6′-(2-methylpropoxy)-2′-(3-phenoxyphenyl)-2′,3′-dihydrospiro[cyclohexane-1,1′-indene]-4-carboxylic acid], for which the Ki at Mcl-1 protein was found to be 0.81 µM. Besides, in assay [2] (Homo sapiens, NCI-H929, 48 h), the IC50 is 18.9 µM.
Taken in the same sequence, the figures for `C[C@@H](COc1ccnc2c1CCCCC2O)C[C@H]1Cc2ccccc2[C@]12CC[C@@](Nc1cccc(Cl)c1)(C(=O)O)CC2` (stereo partly drawn) [Example 634, (1r,2′S,4S)-4-(3-chloroanilino)-2′-{(2R)-3-[(9-hydroxy-6,7,8,9-tetrahydro-5H-cyclohepta[b]pyridin-4-yl)oxy]-2-methylpropyl}-2′,3′-dihydrospiro[cyclohexane-1,1′-indene]-4-carboxylic acid] were 0.0868 µM and 4.23 µM.
In the case of `Cc1cccc(C2Cc3ccccc3[C@]23CC[C@@](Nc2cccc(Cl)c2)(C(=O)O)CC3)c1` (single isomer, unassigned) [Example 346, (1r,4r)-4-(3-chloroanilino)-2′-(3-methylphenyl)-2′,3′-dihydrospiro[cyclohexane-1,1′-indene]-4-carboxylic acid], the Ki at Mcl-1 protein stood at 9.29 µM. Besides, the IC50 in assay [2] is 30 µM.
As to `O=C(O)[C@]1(Nc2cccc(Cl)c2)CC[C@]2(CC1)C(CCOc1ccncc1F)=Cc1ccccc12` [Example 190, (1r,4r)-4-(3-chloroanilino)-2′-{2-[(3-fluoropyridin-4-yl)oxy]ethyl}spiro[cyclohexane-1,1′-indene]-4-carboxylic acid], the Ki on Mcl-1 protein stood at 0.0443 µM. Besides, the IC50 in assay [2] (Homo sapiens, NCI-H929, 48 h) stood at 6.4 µM.
`O=C(O)[C@]1(Nc2cccc(Cl)c2)CC[C@]2(CC1)C(CCCOc1ccnc3ccsc13)=Cc1ccccc12` [Example 442, (1r,4r)-4-(3-chloroanilino)-2′-{3-[(thieno[3,2-b]pyridin-7-yl)oxy]propyl}spiro[cyclohexane-1,1′-indene]-4-carboxylic acid]: the Ki at Mcl-1 protein was 0.107 µM. Further, the IC50 in assay [2] (Homo sapiens, NCI-H929, 48 h) amounted to 5.79 µM.
With `CNc1cccc(OC[C@H](C)C[C@H]2Cc3ccccc3[C@]23CC[C@@](Nc2cccc(Cl)c2)(C(=O)O)CC3)c1` [Example 569, (1r,2′S,4S)-4-(3-chloroanilino)-2′-{(2R)-2-methyl-3-[3-(methylamino)phenoxy]propyl}-2′,3′-dihydrospiro[cyclohexane-1,1′-indene]-4-carboxylic acid], the Ki at Mcl-1 protein was 0.0743 µM. Besides, the IC50 in assay [2] (Homo sapiens, NCI-H929, 48 h) was determined as 1.72 µM.
The like results for `O=C(O)[C@]1(Nc2cccc(Cl)c2)CC[C@@]2(CC1)c1ccccc1CC2CCCOc1ccnc2c1CCC2` (stereo partly drawn) [Example 452, (1r,4r)-4-(3-chloroanilino)-2′-{3-[(6,7-dihydro-5H-cyclopenta[b]pyridin-4-yl)oxy]propyl}-2′,3′-dihydrospiro[cyclohexane-1,1′-indene]-4-carboxylic acid] were, in that order, 0.03 µM and 2.44 µM.
Consider `O=C(O)[C@]1(Nc2cccc(Cl)c2)CC[C@@]2(CC1)c1ccccc1C[C@@H]2C[C@@H](COc1ccnc2ccsc12)c1ccccc1` [Example 545, (1r,2′S,4S)-4-(3-chloroanilino)-2′-{(2R)-2-phenyl-3-[(thieno[3,2-b]pyridin-7-yl)oxy]propyl}-2′,3′-dihydrospiro[cyclohexane-1,1′-indene]-4-carboxylic acid], for which the Ki on Mcl-1 protein amounted to 3.49 µM. Besides, the IC50 in assay [2] (Homo sapiens, NCI-H929, 48 h) is 8.92 µM.
Take `COc1ccc2c(c1)[C@]1(CC2)CC[C@](Nc2cccc(Br)c2)(C(=O)O)CC1` [Example 61, (1r,4s)-4-(3-bromoanilino)-6′-methoxy-2′,3′-dihydrospiro[cyclohexane-1,1′-indene]-4-carboxylic acid]: at Mcl-1 protein, the Ki was found to be 0.358 µM. The IC50 in assay [2] (Homo sapiens, NCI-H929, 48 h) is 30 µM.
The like results for `C[C@@H](COc1ccnc2c1CCCO2)C[C@H]1Cc2ccccc2[C@]12CC[C@@](Nc1cccc(Cl)c1)(C(=O)O)CC2` [Example 635, (1r,2′S,4S)-4-(3-chloroanilino)-2′-{(2R)-3-[(3,4-dihydro-2H-pyrano[2,3-b]pyridin-5-yl)oxy]-2-methylpropyl}-2′,3′-dihydrospiro[cyclohexane-1,1′-indene]-4-carboxylic acid] were, in that order, 0.0448 µM and 4.59 µM.
As for `O=C(O)[C@]1(Nc2cccc(Cl)c2)CC[C@]2(CC1)C(c1cccc(OCc3cccnc3)c1)=Cc1ccccc12` [Example 363, (1s,4s)-4-(3-chloroanilino)-2′-{3-[(pyridin-3-yl)methoxy]phenyl}spiro[cyclohexane-1,1′-indene]-4-carboxylic acid], at Mcl-1 protein, the Ki is 0.227 µM. For the same compound, the IC50 in assay [2] (Homo sapiens, NCI-H929, 48 h) was found to be 30 µM.
The like results for `Cc1cc2c(OCCC[C@@H]3Cc4ccccc4[C@]34CC[C@@](Nc3cccc(Cl)c3)(C(=O)O)CC4)cccc2[nH]1` [Example 481, (1r,2′R,4R)-4-(3-chloroanilino)-2′-{3-[(2-methyl-1H-indol-4-yl)oxy]propyl}-2′,3′-dihydrospiro[cyclohexane-1,1′-indene]-4-carboxylic acid] were, in that order, 0.0721 µM and 5.08 µM.
Turning to `CC(C)C(COc1ccncc1)CC1Cc2ccccc2[C@]12CC[C@@](Nc1cccc(Cl)c1)(C(=O)O)CC2` (single isomer, unassigned) [Example 535, (1r,4r)-4-(3-chloroanilino)-2′-(3-methyl-2-{[(pyridin-4-yl)oxy]methyl}butyl)-2′,3′-dihydrospiro[cyclohexane-1,1′-indene]-4-carboxylic acid], the Ki on Mcl-1 protein came to 2.28 µM. Moreover, in assay [2], the IC50 is 30 µM.
The like results for `CC(C)C(COc1ccncc1)CC1Cc2ccccc2[C@]12CC[C@@](Nc1cccc(Cl)c1)(C(=O)O)CC2` (single isomer, unassigned) [Example 532, (1r,4r)-4-(3-chloroanilino)-2′-(3-methyl-2-{[(pyridin-4-yl)oxy]methyl}butyl)-2′,3′-dihydrospiro[cyclohexane-1,1′-indene]-4-carboxylic acid] were, in that order, 0.809 µM and 12.6 µM.
For `O=C(O)[C@]1(Nc2cccc(Cl)c2)CC[C@@]2(CC1)c1ccccc1CC2CCCOc1ncnc2c1CCC2` (mixture of isomers) [Example 459, (1r,4r)-4-(3-chloroanilino)-2′-{3-[(6,7-dihydro-5H-cyclopenta[d]pyrimidin-4-yl)oxy]propyl}-2′,3′-dihydrospiro[cyclohexane-1,1′-indene]-4-carboxylic acid], the Ki on Mcl-1 protein turned out to be 0.0857 µM. Besides, the IC50 in assay [2] (Homo sapiens, NCI-H929, 48 h) was determined as 6.96 µM.
Consider `O=C(O)[C@]1(Nc2cccc(Cl)c2)CC[C@@]2(CC1)c1ccccc1CC2CCCOc1ncncc1C1CC1` (mixture of isomers) [Example 465, (1r,4r)-4-(3-chloroanilino)-2′-{3-[(5-cyclopropylpyrimidin-4-yl)oxy]propyl}-2′,3′-dihydrospiro[cyclohexane-1,1′-indene]-4-carboxylic acid], for which the inhibition constant (Ki) at Mcl-1 protein worked out at 0.0754 µM. Besides, the IC50 in assay [2] (Homo sapiens, NCI-H929, 48 h) was 9.6 µM.

The values are drawn from patent publication US20240150293A1, “SPIROCYCLOHEXANE DERIVATIVES, PHARMACEUTICAL COMPOSITIONS CONTAINING THEM AND THEIR USES AS ANTI-APOPTOTIC INHIBITORS” (LES LABORATOIRES SERVIER, priority 2021, published 2024).
